Literature values, collected in patent US4127520A, “Novel nonadecapeptides, intermediates therefor, and compositions and methods employing said nonadecapeptides” (priority 1977, dated 1978).

What was measured:
[1] = system: partially purified brain opiate receptor sites; conditions: natural peptide
[2] = injected directly into the brain of the rat

H-Tyr-Gly-Gly-Phe-Met-OH [methionine enkephalin]
binding to partially purified brain opiate receptor sites [1]: binds stereo-specifically | analgesic activity [2]: only weak analgesic agent of short duration
